Test results reported in ChEMBL document CHEMBL4340506, “Inhibition of a viral prolyl hydroxylase” (Bioorg Med Chem, 2019).
Calls of active or inactive are those of the source. No cut-off for these calls is given here. Where a SMILES comes first, the peptide text is derived from it. [ ]: non-standard residue; d: D form. Hyp = O=C(O)[C@@H]1C[C@@H](O)CN1

How the values were obtained:
[1] = biological target: T1, Prolyl 4-hydroxylase (Paramecium bursaria Chlorella virus 1) (UniProt Q84406); test: Substrate activity at N-terminal His6-tagged recombinant Paramecium bursaria chlorella virus 1 CPH expressed in Escherichia coli Rosetta 2 (DE3) cells assessed as substrate hydroxylation at 100 uM incubated for 16 hrs in presence of 2OG by MALDI TOF MS analysis
T1 sequence (whole entry): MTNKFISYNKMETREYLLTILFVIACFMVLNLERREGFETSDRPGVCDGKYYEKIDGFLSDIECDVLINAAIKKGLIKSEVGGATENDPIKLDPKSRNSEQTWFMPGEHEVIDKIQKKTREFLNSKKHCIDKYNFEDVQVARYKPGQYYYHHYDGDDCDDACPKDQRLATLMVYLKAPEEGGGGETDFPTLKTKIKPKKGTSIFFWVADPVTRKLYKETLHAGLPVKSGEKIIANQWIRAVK

[2] = biological target: T1, Prolyl 4-hydroxylase (Paramecium bursaria Chlorella virus 1); test: Substrate activity at N-terminal His6-tagged recombinant Paramecium bursaria chlorella virus 1 CPH expressed in Escherichia coli Rosetta 2 (DE3) cells assessed as substrate hydroxylation up to 1 mM incubated for 16 hrs in presence of 2OG by MALDI TOF MS analysis
[3] = biological target: T1, Prolyl 4-hydroxylase (Paramecium bursaria Chlorella virus 1); test: Substrate activity at N-terminal His6-tagged recombinant Paramecium bursaria chlorella virus 1 CPH expressed in Escherichia coli Rosetta 2 (DE3) cells assessed as succinate production at 500 uM incubated for 60 s in presence of 2OG and in absence of L-ascorbate and using Fe2 as cofactor by 1H NMR spectroscopy
[4] = biological target: T1, Prolyl 4-hydroxylase (Paramecium bursaria Chlorella virus 1); test: Substrate activity at N-terminal His6-tagged recombinant Paramecium bursaria chlorella virus 1 CPH expressed in Escherichia coli Rosetta 2 (DE3) cells assessed as succinate production at 500 uM incubated for 60 s in presence of 2OG and L-ascorbate and using Fe2 as cofactor by 1H NMR spectroscopy
[5] = biological target: T1, Prolyl 4-hydroxylase (Paramecium bursaria Chlorella virus 1); test: Substrate activity at N-terminal His6-tagged recombinant Paramecium bursaria chlorella virus 1 CPH expressed in Escherichia coli Rosetta 2 (DE3) cells assessed as succinate production at 500 uM incubated for 60 s in presence of 2OG and using Fe2 as cofactor by 1H NMR spectroscopy
[6] = biological target: T1, Prolyl 4-hydroxylase (Paramecium bursaria Chlorella virus 1); test: Substrate activity at N-terminal His6-tagged recombinant Paramecium bursaria chlorella virus 1 CPH expressed in Escherichia coli Rosetta 2 (DE3) cells assessed as substrate hydroxylation incubated for 16 hrs in presence of 2OG and in absence of L-ascorbate by MALDI TOF MS analysis
[7] = biological target: Egl nine homolog 1 (Homo sapiens, UniProt Q9GZT9); test: Inhibition of recombinant human PHD2 by alphascreen assay
[8] = biological target: T2, Prolyl 4-hydroxylase (Paramecium bursaria Chlorella virus 1, UniProt Q84406); test: Inhibition of N-terminal His6-tagged recombinant Paramecium bursaria chlorella virus 1 CPH expressed in Escherichia coli Rosetta 2 (DE3) cells pre-incubated for 5 mins before 2OG as substrate and Fe2 as co-factor addition in presence of L-ascorbate and measured after 5 mins MALDI TOF MS analysis
T2 sequence (Q84406 whole entry): T1 sequence (whole entry)

[9] = biological target: T3, Prolyl 3-hydroxylase OGFOD1 (Homo sapiens, UniProt Q8N543); test: Inhibition of recombinant human OGFOD1 using 2OG as substrate and Fe2 as co-factor assessed as hydroxylation incubated for 15 mins in presence of L-ascorbate by MALDI-TOF MS analysis
T3 sequence (Q8N543 whole entry): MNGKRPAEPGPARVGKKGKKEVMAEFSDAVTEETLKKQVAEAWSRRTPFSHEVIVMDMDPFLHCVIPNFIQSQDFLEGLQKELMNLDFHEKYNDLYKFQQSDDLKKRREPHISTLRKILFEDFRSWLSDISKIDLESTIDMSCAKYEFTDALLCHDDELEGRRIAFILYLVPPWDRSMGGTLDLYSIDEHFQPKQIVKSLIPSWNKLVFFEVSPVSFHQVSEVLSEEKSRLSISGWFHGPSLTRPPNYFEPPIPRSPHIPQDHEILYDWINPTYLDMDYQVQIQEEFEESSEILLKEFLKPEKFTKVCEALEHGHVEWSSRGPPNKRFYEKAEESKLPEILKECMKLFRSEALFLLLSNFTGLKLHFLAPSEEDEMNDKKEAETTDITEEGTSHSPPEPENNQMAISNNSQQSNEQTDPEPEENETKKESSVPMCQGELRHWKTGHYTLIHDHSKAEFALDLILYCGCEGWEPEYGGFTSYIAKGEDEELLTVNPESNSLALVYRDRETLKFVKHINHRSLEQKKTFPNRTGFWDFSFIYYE

[10] = biological target: Hypoxia-inducible factor 1-alpha inhibitor (Homo sapiens, UniProt Q9NWT6); test: Inhibition of recombinant human FIH using 2OG as substrate and Fe2 as co-factor assessed as hydroxylation incubated for 15 mins in presence of L-ascorbate by LC-MS analysis
[11] = compound: C[C@H](NC(=O)[C@@H]1CCCN1)C(=O)N1CCC[C@H]1C(=O)N[C@@H](CCCCN)C(=O)N1C[C@H](O)C[C@H]1C(=O)N[C@@H](C)C(=O)N1CCC[C@H]1C(=O)N[C@@H](CCCCN)C(=O)O; test: (§1) Substrate activity at N-terminal His6-tagged recombinant Paramecium bursaria chlorella virus 1 CPH expressed in Escherichia coli Rosetta 2 (DE3) cells assessed as Km(app) for ascorbate incubated for 16 hrs in presence of ascorbate, 2OG and Fe2 by MALDI TOF MS analysis
[12] = compound: C[C@H](NC(=O)[C@@H]1CCCN1)C(=O)N1C[C@H](O)C[C@H]1C(=O)N[C@@H](CCCCN)C(=O)N1CCC[C@H]1C(=O)N[C@@H](C)C(=O)N1CCC[C@H]1C(=O)N[C@@H](CCCCN)C(=O)O; test: as §1
[13] = compound: C[C@H](NC(=O)[C@@H]1CCCN1)C(=O)N1CCC[C@H]1C(=O)N[C@@H](CCCCN)C(=O)N1C[C@H](O)C[C@H]1C(=O)N[C@@H](C)C(=O)N1CCC[C@H]1C(=O)N[C@@H](CCCCN)C(=O)O; test: (§2) Substrate activity at N-terminal His6-tagged recombinant Paramecium bursaria chlorella virus 1 CPH expressed in Escherichia coli Rosetta 2 (DE3) cells assessed as Km(app) for Fe2 incubated for 16 hrs in presence of 2OG and Fe2 by MALDI TOF MS analysis
[14] = compound: C[C@H](NC(=O)[C@@H]1CCCN1)C(=O)N1C[C@H](O)C[C@H]1C(=O)N[C@@H](CCCCN)C(=O)N1CCC[C@H]1C(=O)N[C@@H](C)C(=O)N1CCC[C@H]1C(=O)N[C@@H](CCCCN)C(=O)O; test: as §2
[15] = compound: C[C@H](NC(=O)[C@@H]1CCCN1)C(=O)N1CCC[C@H]1C(=O)N[C@@H](CCCCN)C(=O)N1C[C@H](O)C[C@H]1C(=O)N[C@@H](C)C(=O)N1CCC[C@H]1C(=O)N[C@@H](CCCCN)C(=O)O; test: Substrate activity at N-terminal His6-tagged recombinant Paramecium bursaria chlorella virus 1 CPH expressed in Escherichia coli Rosetta 2 (DE3) cells assessed as substrate Km incubated for 16 hrs in presence of 2OG by MALDI TOF MS analysis
[16] = compound: C[C@H](NC(=O)[C@@H]1CCCN1)C(=O)N1CCC[C@H]1C(=O)N[C@@H](CCCCN)C(=O)N1C[C@H](O)C[C@H]1C(=O)N[C@@H](C)C(=O)N1CCC[C@H]1C(=O)N[C@@H](CCCCN)C(=O)O; test: Substrate activity at N-terminal His6-tagged recombinant Paramecium bursaria chlorella virus 1 CPH expressed in Escherichia coli Rosetta 2 (DE3) cells assessed as substrate Kcat incubated for 16 hrs in presence of 2OG by MALDI TOF MS analysis
[17] = compound: C[C@H](NC(=O)[C@@H]1CCCN1)C(=O)N1CCC[C@H]1C(=O)N[C@@H](CCCCN)C(=O)N1C[C@H](O)C[C@H]1C(=O)N[C@@H](C)C(=O)N1CCC[C@H]1C(=O)N[C@@H](CCCCN)C(=O)O; test: (§3) Substrate activity at N-terminal His6-tagged recombinant Paramecium bursaria chlorella virus 1 CPH expressed in Escherichia coli Rosetta 2 (DE3) cells assessed as Km for 2OG incubated for 16 hrs in presence of 2OG and Fe2 by MALDI TOF MS analysis
[18] = compound: C[C@H](NC(=O)[C@@H]1CCCN1)C(=O)N1C[C@H](O)C[C@H]1C(=O)N[C@@H](CCCCN)C(=O)N1CCC[C@H]1C(=O)N[C@@H](C)C(=O)N1CCC[C@H]1C(=O)N[C@@H](CCCCN)C(=O)O; test: as §3

Egl nine homolog 1, sequence (Q9GZT9 whole entry): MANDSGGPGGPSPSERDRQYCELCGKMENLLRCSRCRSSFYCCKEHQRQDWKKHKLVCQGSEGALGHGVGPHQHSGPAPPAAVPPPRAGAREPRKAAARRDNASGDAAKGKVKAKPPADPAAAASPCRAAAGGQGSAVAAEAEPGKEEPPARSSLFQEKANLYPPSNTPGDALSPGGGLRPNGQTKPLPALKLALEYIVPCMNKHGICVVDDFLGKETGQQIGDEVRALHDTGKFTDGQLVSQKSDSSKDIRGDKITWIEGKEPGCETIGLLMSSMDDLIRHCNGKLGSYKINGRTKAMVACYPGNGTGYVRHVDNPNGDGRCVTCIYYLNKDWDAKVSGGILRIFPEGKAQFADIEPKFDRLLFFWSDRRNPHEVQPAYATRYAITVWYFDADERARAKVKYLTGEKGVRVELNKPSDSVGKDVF
Hypoxia-inducible factor 1-alpha inhibitor, sequence (Q9NWT6 whole entry): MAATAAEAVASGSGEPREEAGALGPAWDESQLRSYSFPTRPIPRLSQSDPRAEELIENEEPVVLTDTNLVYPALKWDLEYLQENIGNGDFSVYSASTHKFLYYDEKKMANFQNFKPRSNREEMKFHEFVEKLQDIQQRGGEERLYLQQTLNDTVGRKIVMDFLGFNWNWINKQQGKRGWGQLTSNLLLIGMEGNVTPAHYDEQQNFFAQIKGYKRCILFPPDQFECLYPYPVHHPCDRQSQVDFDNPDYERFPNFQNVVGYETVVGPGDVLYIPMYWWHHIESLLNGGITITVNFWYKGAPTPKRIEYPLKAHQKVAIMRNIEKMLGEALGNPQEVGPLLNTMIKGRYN

Molecule: C[C@H](NC(=O)[C@@H]1CCCN1)C(=O)N1C[C@H](O)C[C@H]1C(=O)N[C@@H](CCCCN)C(=O)N1CCC[C@H]1C(=O)N[C@@H](C)C(=O)N1CCC[C@H]1C(=O)N[C@@H](CCCCN)C(=O)O (H-PA[Hyp]KPAPK-OH)
- Activity [1]: inactive
- Activity [2]: inactive
- Activity [3]: inactive
- Activity [4]: Active

Molecule: H-PAPKPAPK-OH
- Activity [5]: Active
- Activity [6]: inactive

Molecule: O=C(O)CNC(=O)c1c(O)c2ccccc2n(Cc2ccccc2)c1=O
- IC50 [7]: 0.022 µM
- IC50 [8]: 8.5 µM

Molecule: Cc1nc(C(=O)NCC(=O)O)c(O)c2ccc(Oc3ccccc3)cc12 [ROXADUSTAT]
- IC50 [9]: < 1 µM
- IC50 [10]: > 100 µM
- IC50 [8]: 5 µM
- Ki [8]: 1.07 µM

B1: Prolyl 4-hydroxylase (Paramecium bursaria Chlorella virus 1), Q84406 (protein)
chain: T1 sequence (whole entry)
- Km [11]: 13.8 µM
- Km [12]: 1.7 µM
- Km [13]: 1.1 µM
- Km [14]: 0.9 µM
- Km [15]: 230 µM
- kcat [16]: 52.1 s⁻¹
- Km [17]: 27.4 µM
- Km [18]: 29.5 µM
